From patent publication US9187497B2, “Substituted pyrido[3,2-e]pyrrolo[1,2-a]pyrazines as inhibitors of poly(ADP-ribose)polymerase (PARP)” (Takeda Phamaceutical Company Limited, priority 2009, dated 2015)

What follows are molecules tested on Jurkat cell line (assay: PARP cellular chemopotentiation assay (MTS cell viability with and without TMZ)). Settings: ratio of EC50 for inhibition of cell viability without and with 100 μM TMZ; Jurkat cells, 96 hours of treatment.
Assay type: cell-based
Procedure: Potentiation Factor (PF50) Determination from PARP Cellular Chemopotentiation Assay
Jurkat cell line was maintained according to the supplier (American Type Culture Collection (Rockville, Md.)). Cells were seeded in 96-well tissue culture microplates at 10,000 cells per well and cultured for 24 hours prior to addition of compounds, TMZ (Temozolomide) or DMSO (dimethylsulfoxide) vehicle. After 96 hours of treatment, the conversion of MTS ([3-(4,5-dimethylthiazol-2-yl)-5-(3-carboxymethoxyphenyl)-2-(4-sulfophenyl)-2H-tetrazolium, inner salt], Promega, Madison, Wis.) by metabolically active cells was determined through measuring the OD490 nm with a Spectramax microplate reader (Molecular Devices, San Diego, Calif.). To generate concentration-response curves, cells were treated in duplicate with a range of serial compound dilutions (final DMSO concentration was 0.5%) in the absence or presence of 100 μM TMZ chemoreagent. The percentage of viable cells per well was calculated by correction for background and normalizing against DMSO-treated cells. EC50 values for inhibition of cell viability were calculated using XLfit4 MicroSoft Excel curve-fitting software. Chemopotentiation factor PF50 was calculated as the ratio of EC50 values of cells co-treated without and with TMZ, respectively.
For `CCOC(=O)c1ccc(N2CCN(Cc3cnc4c(c3)NC(=O)[C@@H]3CCCN43)CC2)nc1` [Compound 6A, (S)-ethyl 6-(4-((6-oxo-5,6,6a,7,8,9-hexahydropyrido[3,2-e]pyrrolo[1,2-a]pyrazin-3-yl)methyl)piperazin-1-yl)nicotinate], the PF50 was “≧0”. `CCNC(=O)c1ccc(N2CCN(Cc3cnc4c(c3)NC(=O)[C@@H]3CCCN43)CC2)nc1` [Compound 7, (S)—N-ethyl-6-(4-((6-oxo-5,6,6a,7,8,9-hexahydropyrido[3,2-e]pyrrolo[1,2-a]pyrazin-3-yl)methyl)piperazin-1-yl)nicotinamide] was tested, and the PF50 was >10. `O=C(NC1CC1)c1ccc(N2CCN(Cc3cnc4c(c3)NC(=O)[C@@H]3CCCN43)CC2)nc1` [Compound 8, (S)—N-cyclopropyl-6-(4-((6-oxo-5,6,6a,7,8,9-hexahydropyrido[3,2-e]pyrrolo[1,2-a]pyrazin-3-yl)methyl)piperazin-1-yl)nicotinamide] was tested, and the PF50 was >10. For `CC(C)NC(=O)c1ccc(N2CCN(Cc3cnc4c(c3)NC(=O)[C@@H]3CCCN43)CC2)nc1` [Compound 9, (S)—N-isopropyl-6-(4-((6-oxo-5,6,6a,7,8,9-hexahydropyrido[3,2-e]pyrrolo[1,2-a]pyrazin-3-yl)methyl)piperazin-1-yl)nicotinamide], the PF50 was “≧0”. For `O=C1Nc2cc(CN3CCN(c4ccc(F)cc4F)CC3)cnc2N2CCC[C@@H]12` [Compound 15, (S)-3-((4-(2,4-difluorophenyl)piperazin-1-yl)methyl)-6a,7,8,9-tetrahydropyrido[3,2-e]pyrrolo[1,2-a]pyrazin-6(5H)-one], the PF50 was >500. For `N#Cc1ccc(N2CCN(Cc3cnc4c(c3)NC(=O)[C@@H]3CCCN43)CC2)c(F)c1F` [Compound 18, (S)-2,3-difluoro-4-(4-((6-oxo-5,6,6a,7,8,9-hexahydropyrido[3,2-e]pyrrolo[1,2-a]pyrazin-3-yl)methyl)piperazin-1-yl)benzonitrile], the PF50 was >10. With `N#Cc1c(F)cc(N2CCN(Cc3cnc4c(c3)NC(=O)[C@@H]3CCCN43)CC2)cc1F` [Compound 19, (S)-2,6-difluoro-4-(4-((6-oxo-5,6,6a,7,8,9-hexahydropyrido[3,2-e]pyrrolo[1,2-a]pyrazin-3-yl)methyl)piperazin-1-yl)benzonitrile] the PF50 was “≧0”. For `N#Cc1cc(F)c(N2CCN(Cc3cnc4c(c3)NC(=O)[C@@H]3CCCN43)CC2)c(F)c1` [Compound 20, (S)-3,5-difluoro-4-(4-((6-oxo-5,6,6a,7,8,9-hexahydropyrido[3,2-e]pyrrolo[1,2-a]pyrazin-3-yl)methyl)piperazin-1-yl)benzonitrile], the PF50 was “≧0”. For `N#Cc1ncc(N2CCN(Cc3cnc4c(c3)NC(=O)[C@@H]3CCCN43)CC2)cc1F` [Compound 22, (S)-3-fluoro-5-(4-((6-oxo-5,6,6a,7,8,9-hexahydropyrido[3,2-e]pyrrolo[1,2-a]pyrazin-3-yl)methyl)piperazin-1-yl)picolinonitrile], the PF50 was >10. For `O=C1Nc2cc(CN3CCN(c4ccccc4)CC3)cnc2N2CCC[C@@H]12` [Compound 23, (S)-3-((4-phenylpiperazin-1-yl)methyl)-6a,7,8,9-tetrahydropyrido[3,2-e]pyrrolo[1,2-a]pyrazin-6(5H)-one], the PF50 was “≧0”. For `CC(=O)c1ccc(N2CCN(Cc3cnc4c(c3)NC(=O)[C@@H]3CCCN43)CC2)cc1` [Compound 25, (S)-3-((4-(4-acetylphenyl)piperazin-1-yl)methyl)-6a,7,8,9-tetrahydropyrido[3,2-e]pyrrolo[1,2-a]pyrazin-6(5H)-one], the PF50 was “≧0”. In the case of `O=C1Nc2cc(CN3CCN(c4ccccn4)CC3)cnc2N2CCC[C@@H]12` [Compound 26, (S)-3-((4-(pyridin-2-yl)piperazin-1-yl)methyl)-6a,7,8,9-tetrahydropyrido[3,2-e]pyrrolo[1,2-a]pyrazin-6(5H)-one], the PF50 is reported as >10. `COc1ccc(N2CCN(Cc3cnc4c(c3)NC(=O)[C@@H]3CCCN43)CC2)cc1` [Compound 31, (S)-3-((4-(4-methoxyphenyl)piperazin-1-yl)methyl)-6a,7,8,9-tetrahydropyrido[3,2-e]pyrrolo[1,2-a]pyrazin-6(5H)-one] was tested, and the PF50 was “≧0”. `Cc1ccc(N2CCN(Cc3cnc4c(c3)NC(=O)[C@@H]3CCCN43)CC2)cc1` [Compound 32, (S)-3-((4-p-tolylpiperazin-1-yl)methyl)-6a,7,8,9-tetrahydropyrido[3,2-e]pyrrolo[1,2-a]pyrazin-6(5H)-one] was tested, and the PF50 was “≧0”. With `O=C1Nc2cc(CN3CCN(c4cccc(O)c4)CC3)cnc2N2CCC[C@@H]12` [Compound 34, (S)-3-((4-(3-hydroxyphenyl)piperazin-1-yl)methyl)-6a,7,8,9-tetrahydropyrido[3,2-e]pyrrolo[1,2-a]pyrazin-6(5H)-one] the PF50 was “≧0”. In the case of `O=C1Nc2cc(CN3CCN(c4ccc(O)cc4)CC3)cnc2N2CCC[C@@H]12` [Compound 35, (S)-3-((4-(4-hydroxyphenyl)piperazin-1-yl)methyl)-6a,7,8,9-tetrahydropyrido[3,2-e]pyrrolo[1,2-a]pyrazin-6(5H)-one], the PF50 is reported as “≧0”. `O=C1Nc2cc(CN3CCN(c4ccc(C(F)(F)F)cn4)CC3)cnc2N2CCC[C@@H]12` [Compound 36, (S)-3-((4-(5-(trifluoromethyl)pyridin-2-yl)piperazin-1-yl)methyl)-6a,7,8,9-tetrahydropyrido[3,2-e]pyrrolo[1,2-a]pyrazin-6(5H)-one] was tested, and the PF50 was “≧0”. In the case of `O=C1Nc2cc(CN3CCN(c4cccc(F)c4)CC3)cnc2N2CCC[C@@H]12` [Compound 38, (S)-3-((4-(3-fluorophenyl)piperazin-1-yl)methyl)-6a,7,8,9-tetrahydropyrido[3,2-e]pyrrolo[1,2-a]pyrazin-6(5H)-one], the PF50 is reported as “≧0”. For `O=C1Nc2cc(CN3CCN(c4nc5ccccc5[nH]4)CC3)cnc2N2CCC[C@@H]12` [Compound 39, (S)-3-((4-(1H-benzo[d]imidazol-2-yl)piperazin-1-yl)methyl)-6a,7,8,9-tetrahydropyrido[3,2-e]pyrrolo[1,2-a]pyrazin-6(5H)-one], the PF50 was “≧0”. In the case of `O=C1Nc2cc(CN3CCN(c4ccc(I)cc4)CC3)cnc2N2CCC[C@@H]12` [Compound 40, (S)-3-((4-(4-iodophenyl)piperazin-1-yl)methyl)-6a,7,8,9-tetrahydropyrido[3,2-e]pyrrolo[1,2-a]pyrazin-6(5H)-one], the PF50 is reported as >10. In the case of `O=C1Nc2cc(CN3CCN(c4nc5ccccc5o4)CC3)cnc2N2CCC[C@@H]12` [Compound 41, (S)-3-((4-(benzo[d]oxazol-2-yl)piperazin-1-yl)methyl)-6a,7,8,9-tetrahydropyrido[3,2-e]pyrrolo[1,2-a]pyrazin-6(5H)-one], the PF50 is reported as “≧0”. In the case of `O=C1Nc2cc(CN3CCN(c4cc(F)cc(F)c4)CC3)cnc2N2CCC[C@@H]12` [Compound 46, (S)-3-((4-(3,5-difluorophenyl)piperazin-1-yl)methyl)-6a,7,8,9-tetrahydropyrido[3,2-e]pyrrolo[1,2-a]pyrazin-6(5H)-one], the PF50 is reported as “≧0”. With `O=C1Nc2cc(CN3CCN(c4ccc(C(F)(F)F)cc4)CC3)cnc2N2CCC[C@@H]12` [Compound 48, (S)-3-((4-(4-(trifluoromethyl)phenyl)piperazin-1-yl)methyl)-6a,7,8,9-tetrahydropyrido[3,2-e]pyrrolo[1,2-a]pyrazin-6(5H)-one] the PF50 was “≧0”. For `O=C1Nc2cc(CN3CC=C(c4ccc(Cl)cc4)CC3)cnc2N2CCC[C@H]12` [Compound 49, (R)-3-((4-(4-chlorophenyl)-5,6-dihydropyridin-1(2H)-yl)methyl)-6a,7,8,9-tetrahydropyrido[3,2-e]pyrrolo[1,2-a]pyrazin-6(5H)-one], the PF50 was “≧0”. With `O=C1Nc2cc(CN3CCN(c4ccc(Cl)cc4)CC3)cnc2N2CCC[C@H]12` [Compound 50, (R)-3-((4-(4-chlorophenyl)piperazin-1-yl)methyl)-6a,7,8,9-tetrahydropyrido[3,2-e]pyrrolo[1,2-a]pyrazin-6(5H)-one] the PF50 was “≧0”. In the case of `O=C1Nc2cc(CN3CCC(c4ccc(Cl)cc4)CC3)cnc2N2CCC[C@H]12` [Compound 51, (R)-3-((4-(4-chlorophenyl)piperidin-1-yl)methyl)-6a,7,8,9-tetrahydropyrido[3,2-e]pyrrolo[1,2-a]pyrazin-6(5H)-one], the PF50 is reported as “≧0”. `CC(C)NC(=O)c1ccc(N2CCN(Cc3cnc4c(c3)NC(=O)[C@@H]3CCCCN43)CC2)nc1` [Compound 76, (S)—N-isopropyl-6-(4-((6-oxo-6,6a,7,8,9,10-hexahydro-5H-dipyrido[1,2-a:3′,2′-e]pyrazin-3-yl)methyl)piperazin-1-yl)nicotinamide] was tested, and the PF50 was “≧0”. With `CCNC(=O)c1ccc(N2CCN(Cc3cnc4c(c3)NC(=O)[C@@H]3CCCCN43)CC2)nc1` [Compound 78, (S)—N-ethyl-6-(4-((6-oxo-6,6a,7,8,9,10-hexahydro-5H-dipyrido[1,2-a:3′,2′-e]pyrazin-3-yl)methyl)piperazin-1-yl)nicotinamide] the PF50 was >10. For `O=C(NC1CC1)c1ccc(N2CCN(Cc3cnc4c(c3)NC(=O)[C@@H]3CCCCN43)CC2)nc1` [Compound 79, (S)—N-cyclopropyl-6-(4-((6-oxo-6,6a,7,8,9,10-hexahydro-5H-dipyrido[1,2-a:3′,2′-e]pyrazin-3-yl)methyl)piperazin-1-yl)nicotinamide], the PF50 was >10. With `N#Cc1ccc(N2CCN(Cc3cnc4c(c3)NC(=O)[C@@H]3CSCCN43)CC2)nc1` [Compound 89, (R)-6-(4-((6-oxo-5,6,6a,7,9,10-hexahydropyrido[3,2-e][1,4]thiazino[4,3-a]pyrazin-3-yl)methyl)piperazin-1-yl)nicotinonitrile] the PF50 was >10.
